Results: US20230381328A1, “COMPOUND FOR THE PREVENTION OR TREATMENT OF MYASTHENIA GRAVIS” (ABLEVIA BIOTECH GMBH, priority 2020, published 2023)

System: myasthenogenic antibody mAB 198
Assay: Peptide microarray mimotope screen, binding of mAB 198 to linear and cyclic peptides (fluorescence readout)
Design: species or system rat
Details: binding of mAB 198, relative fluorescent signal after normalization against background
Source text: A custom peptide array of 30000 peptides was synthesized, with peptides of 7-19 amino acids in size; the peptides were based on substitution analyses of 176 AChR-MIR peptides with exchanges of each amino acid positions by each of the 20 common amino acids. Peptides were synthesized directly on a microarray, and screened with monoclonal antibody mAB 198 in order to obtain mimotopes with a binding strength which was improved over the human AChR alpha chain MIR-containing sequence […] (Tzartos et al, 1991; Luo et al, 2009) and over a previously published mimotope sequence ([…]), that was derived from Torpedo AchR with the help of antibody mAB 132A (Trinh et al, 2014). In particular, the wild type AChR-MIR sequence is known to structurally mimic to a certain extent the epitope recognized by myasthenogenic, unwanted and disease-causing antibodies from patients. The mimotope peptide library was designed by permutation of each single amino acid position of these two sequences with all natural amino acids in order to provide a maximally diversified collection of peptide variants. All peptides were synthesized in doublets as linear and as cyclic peptides. The aim was to obtain peptides (mimotopes) that mimic the natural epitope of myasthenogenic antibodies.
For the mimotope screen, the antibody mAB 198 (Absolute Antibody Ltd, UK) was used. This is a prototype antibody that was generated in rats using human AChR (Tzartos et al, 1983; Asher et al, 1993). […] Therefore, mAB198 was used as a surrogate probe to screen for new mimotopes that are capable of mimicking the corresponding AChR-MIR epitope or portions of the epitope.
As a readout, binding of mAB 198 to the 30000 linear and cyclic peptides was measured by fluorescence readout, and peptides were ranked according to their relative fluorescent signal after normalization against the background.
The top-ranked 100 linear and cyclic mimotopes are listed in Table 1 and Table 2 above, respectively.

For 1 (LRRNPAD) [compound 1], the “relative signal [%]” value (linear mimotopes) was 100.0%.
For 2 (NPADYRG) [compound 2], the “relative signal [%]” value (linear mimotopes) was 71.4%.
With 3 (NPADYHG) [compound 3] the “relative signal [%]” value (linear mimotopes) was 59.3%.
For 4 (VRLRWNPADYP) [compound 4], the “relative signal [%]” value (linear mimotopes) was 56.7%.
5 (LRGNPAD) [compound 5] was tested, and the “relative signal [%]” value (linear mimotopes) was 48.0%.
For 6 (WNPADYR) [compound 6], the “relative signal [%]” value (linear mimotopes) was 40.6%.
7 (LRFNPAD) [compound 7] was tested, and the “relative signal [%]” value (linear mimotopes) was 37.1%.
With 8 (GSLRYNP) [compound 8] the “relative signal [%]” value (linear mimotopes) was 34.4%.
In the case of 9 (LRVNPADYG) [compound 9], the “relative signal [%]” value (linear mimotopes) is reported as 31.6%.
In the case of 10 (LRRNPADYG) [compound 10], the “relative signal [%]” value (linear mimotopes) is reported as 28.3%.
For 11 (VRLRFNP) [compound 11], the “relative signal [%]” value (linear mimotopes) was 27.1%.
With 12 (VRLRYNP) [compound 12] the “relative signal [%]” value (linear mimotopes) was 26.3%.
In the case of 13 (LRLNPAD) [compound 13], the “relative signal [%]” value (linear mimotopes) is reported as 25.2%.
14 (VRLRRNPAD) [compound 14] was tested, and the “relative signal [%]” value (linear mimotopes) was 25.0%.
With 15 (RFNPADY) [compound 15] the “relative signal [%]” value (linear mimotopes) was 21.8%.
For 16 (GSLRFNP) [compound 16], the “relative signal [%]” value (linear mimotopes) was 21.6%.
For 17 (NPDDYHG) [compound 17], the “relative signal [%]” value (linear mimotopes) was 21.3%.
With 18 (NPADYGY) [compound 18] the “relative signal [%]” value (linear mimotopes) was 21.2%.
For 19 (WNPADYP) [compound 19], the “relative signal [%]” value (linear mimotopes) was 20.5%.
With 20 (RLHWNPADY) [compound 20] the “relative signal [%]” value (linear mimotopes) was 20.2%.
For 21 (QWIDVRLRFNP) [compound 21], the “relative signal [%]” value (linear mimotopes) was 20.1%.
With 22 (NPADYPG) [compound 22] the “relative signal [%]” value (linear mimotopes) was 19.8%.
With 23 (NPADYGH) [compound 23] the “relative signal [%]” value (linear mimotopes) was 18.1%.
With 24 (RLNPADY) [compound 24] the “relative signal [%]” value (linear mimotopes) was 17.7%.
In the case of 25 (LRLNPADYG) [compound 25], the “relative signal [%]” value (linear mimotopes) is reported as 17.3%.
In the case of 26 (LLGGGSLRFNP) [compound 26], the “relative signal [%]” value (linear mimotopes) is reported as 16.7%.
With 27 (RYNPADY) [compound 27] the “relative signal [%]” value (linear mimotopes) was 16.5%.
In the case of 28 (LRYNPAD) [compound 28], the “relative signal [%]” value (linear mimotopes) is reported as 15.9%.
With 29 (LHWNPAD) [compound 29] the “relative signal [%]” value (linear mimotopes) was 15.7%.
In the case of 30 (LRWNPADYH) [compound 30], the “relative signal [%]” value (linear mimotopes) is reported as 15.3%.
In the case of 31 (IDVRLRFNP) [compound 31], the “relative signal [%]” value (linear mimotopes) is reported as 15.0%.
32 (RLRVNPADY) [compound 32] was tested, and the “relative signal [%]” value (linear mimotopes) was 14.9%.
For 33 (NPADYGD) [compound 33], the “relative signal [%]” value (linear mimotopes) was 14.1%.
34 (WNPADYGHI) [compound 34] was tested, and the “relative signal [%]” value (linear mimotopes) was 13.7%.
In the case of 35 (YNLKFNP) [compound 35], the “relative signal [%]” value (linear mimotopes) is reported as 13.7%.
In the case of 36 (SLHWNPADY) [compound 36], the “relative signal [%]” value (linear mimotopes) is reported as 13.6%.
37 (QWIDVRLRYNP) [compound 37] was tested, and the “relative signal [%]” value (linear mimotopes) was 13.4%.
For 38 (RGNPADYGG) [compound 38], the “relative signal [%]” value (linear mimotopes) was 13.0%.
In the case of 39 (GGGSLRFNP) [compound 39], the “relative signal [%]” value (linear mimotopes) is reported as 13.0%.
40 (LRINPADYG) [compound 40] was tested, and the “relative signal [%]” value (linear mimotopes) was 12.6%.
With 41 (RWNPADF) [compound 41] the “relative signal [%]” value (linear mimotopes) was 12.6%.
For 42 (RLRWNPADYHG) [compound 42], the “relative signal [%]” value (linear mimotopes) was 12.4%.
43 (IDVRLRYNP) [compound 43] was tested, and the “relative signal [%]” value (linear mimotopes) was 12.2%.
For 44 (RINPADY) [compound 44], the “relative signal [%]” value (linear mimotopes) was 12.2%.
For 45 (NPADYGR) [compound 45], the “relative signal [%]” value (linear mimotopes) was 12.2%.
With 46 (RLRFNPADY) [compound 46] the “relative signal [%]” value (linear mimotopes) was 11.4%.
47 (WNPDDYR) [compound 47] was tested, and the “relative signal [%]” value (linear mimotopes) was 11.4%.
For 48 (CNLKFNP) [compound 48], the “relative signal [%]” value (linear mimotopes) was 11.0%.
With 49 (SLRINPADY) [compound 49] the “relative signal [%]” value (linear mimotopes) was 11.0%.
50 (RLYWNPADY) [compound 50] was tested, and the “relative signal [%]” value (linear mimotopes) was 11.0%.
For 51 (QWVDYNLKFNP) [compound 51], the “relative signal [%]” value (linear mimotopes) was 10.9%.
In the case of 52 (GGGSLRRNPAD) [compound 52], the “relative signal [%]” value (linear mimotopes) is reported as 10.6%.
53 (LRWNPADYGGF) [compound 53] was tested, and the “relative signal [%]” value (linear mimotopes) was 10.6%.
For 54 (SLRWNPADYHG) [compound 54], the “relative signal [%]” value (linear mimotopes) was 10.6%.
For 55 (NPADYDG) [compound 55], the “relative signal [%]” value (linear mimotopes) was 10.3%.
In the case of 56 (DVRLRFNPADY) [compound 56], the “relative signal [%]” value (linear mimotopes) is reported as 10.0%.
For 57 (RRNPADY) [compound 57], the “relative signal [%]” value (linear mimotopes) was 9.9%.
With 58 (RPNPADY) [compound 58] the “relative signal [%]” value (linear mimotopes) was 9.5%.
For 59 (GSLRRNPAD) [compound 59], the “relative signal [%]” value (linear mimotopes) was 9.5%.
In the case of 60 (WNPADYH) [compound 60], the “relative signal [%]” value (linear mimotopes) is reported as 9.4%.
With 61 (RWNPADYGH) [compound 61] the “relative signal [%]” value (linear mimotopes) was 9.4%.
62 (GSLRFNPAD) [compound 62] was tested, and the “relative signal [%]” value (linear mimotopes) was 9.3%.
For 63 (LRINPAD) [compound 63], the “relative signal [%]” value (linear mimotopes) was 9.2%.
For 64 (WRLRWNPAD) [compound 64], the “relative signal [%]” value (linear mimotopes) was 9.0%.
In the case of 65 (GNPADYGGI) [compound 65], the “relative signal [%]” value (linear mimotopes) is reported as 8.9%.
66 (RHNPADY) [compound 66] was tested, and the “relative signal [%]” value (linear mimotopes) was 8.9%.
In the case of 67 (WNPDDYGHV) [compound 67], the “relative signal [%]” value (linear mimotopes) is reported as 8.8%.
68 (RPNPADYGG) [compound 68] was tested, and the “relative signal [%]” value (linear mimotopes) was 8.6%.
For 69 (DVRLRINPADY) [compound 69], the “relative signal [%]” value (linear mimotopes) was 8.5%.
In the case of 70 (YNLKYNP) [compound 70], the “relative signal [%]” value (linear mimotopes) is reported as 8.3%.
71 (GGGSLRFNPAD) [compound 71] was tested, and the “relative signal [%]” value (linear mimotopes) was 8.1%.
For 72 (VRHRWNPAD) [compound 72], the “relative signal [%]” value (linear mimotopes) was 8.1%.
With 73 (NPADYGI) [compound 73] the “relative signal [%]” value (linear mimotopes) was 8.0%.
For 74 (IDVRLRFNPAD) [compound 74], the “relative signal [%]” value (linear mimotopes) was 7.9%.
In the case of 75 (NPDDYGH) [compound 75], the “relative signal [%]” value (linear mimotopes) is reported as 7.7%.
76 (VPLRWNPAD) [compound 76] was tested, and the “relative signal [%]” value (linear mimotopes) was 7.6%.
For 77 (YNLPWNP) [compound 77], the “relative signal [%]” value (linear mimotopes) was 7.6%.
With 78 (VDYNLKFNP) [compound 78] the “relative signal [%]” value (linear mimotopes) was 7.6%.
79 (HWNPADY) [compound 79] was tested, and the “relative signal [%]” value (linear mimotopes) was 7.4%.
80 (RTNPADY) [compound 80] was tested, and the “relative signal [%]” value (linear mimotopes) was 7.2%.
81 (LRWNPADYHGI) [compound 81] was tested, and the “relative signal [%]” value (linear mimotopes) was 7.2%.
For 82 (GGGSLRYNP) [compound 82], the “relative signal [%]” value (linear mimotopes) was 7.1%.
With 83 (RLRGNPADY) [compound 83] the “relative signal [%]” value (linear mimotopes) was 6.9%.
For 84 (RGNPADY) [compound 84], the “relative signal [%]” value (linear mimotopes) was 6.9%.
In the case of 85 (VDCNLKFNP) [compound 85], the “relative signal [%]” value (linear mimotopes) is reported as 6.8%.
In the case of 86 (DVRLRWNPSDY) [compound 86], the “relative signal [%]” value (linear mimotopes) is reported as 6.8%.
In the case of 87 (RIRWNPADY) [compound 87], the “relative signal [%]” value (linear mimotopes) is reported as 6.8%.
For 88 (HRLRWNPAD) [compound 88], the “relative signal [%]” value (linear mimotopes) was 6.7%.
For 89 (SLRVNPADY) [compound 89], the “relative signal [%]” value (linear mimotopes) was 6.7%.
With 90 (CNLKYNP) [compound 90] the “relative signal [%]” value (linear mimotopes) was 6.7%.
For 91 (HSLRWNPAD) [compound 91], the “relative signal [%]” value (linear mimotopes) was 6.6%.
92 (NPADYGN) [compound 92] was tested, and the “relative signal [%]” value (linear mimotopes) was 6.5%.
With 93 (LRWNPADYPGI) [compound 93] the “relative signal [%]” value (linear mimotopes) was 6.5%.
In the case of 94 (RLRYNPADY) [compound 94], the “relative signal [%]” value (linear mimotopes) is reported as 6.5%.
In the case of 95 (SLRFNPADY) [compound 95], the “relative signal [%]” value (linear mimotopes) is reported as 6.5%.
96 (QWVDCNLKFNP) [compound 96] was tested, and the “relative signal [%]” value (linear mimotopes) was 6.4%.
For 97 (LRPNPADYG) [compound 97], the “relative signal [%]” value (linear mimotopes) was 6.1%.
With 98 (VDCNLKYNP) [compound 98] the “relative signal [%]” value (linear mimotopes) was 6.1%.
With 99 (ALRWNPADY) [compound 99] the “relative signal [%]” value (linear mimotopes) was 6.0%.
100 (NPADYGV) [compound 100] was tested, and the “relative signal [%]” value (linear mimotopes) was 6.0%.
With 101 (VRLRWNPADYP) [compound 101] the “relative signal [%]” value (cyclic mimotopes) was 100.0%.
